The values that follow are results of earlier work, collected in patent publication US8603996B2, “Modular aptamer-regulated ribozymes” (California Institute of Technology, priority 2006, dated 2013).

The subject of this data set is theophylline aptamer.

On to `O=c1[nH]c(=O)c2[nH]cnc2[nH]1` [xanthine], for which the “binding affinity lower than theophylline” value is recorded as 27 fold.
